The text below walks through data of patent US20100222875A1, “METHOD FOR FORMING A POROUS STENT COATING” (Abbott Cardiovascular Systems Inc., priority 2006, published 2010).

SMILES strings stand for the structures.

The nature of the data set: in vitro drug release from a PBMA-coated stent. Format: physicochemical. To be noted: over 24 hours, everolimus in PBMA drug coat, drug:polymer ratio 1 to 1.25, with 40-μg PBMA topcoat (0.3 micron coating thickness) on 18-mm medium stent. The text has this: Of import to the present invention is that a polymer's mesh size can be altered by the formation of pores within the polymer itself. One means of accomplishing this is to add such a large concentration of drug to the polymer that the drug phase separates out. Thus, during stent synthesis, drug is released, thereby forming pores within the polymer. However, a topcoat is often added to control drug release and prevent an initial bolus or burst release of drug. Unfortunately, sometimes even the thinnest topcoat that can be applied leads to a drug release that is too slow to be therapeutically effective. One example is everolimus in a PBMA drug coat with a PBMA topcoat. For example, it has been shown that a thin 40-μg PBMA topcoat on an 18-mm medium stent, i.e., a 0.3 micron coating thickness, with a drug:polymer ratio of 1 to 1.25, gave only 7.1% drug release over 24 hours in an in vitro experiment.

Take `CO[C@H]1C[C@@H]2CC[C@@H](C)[C@@](O)(O2)C(=O)C(=O)N2CCCC[C@H]2C(=O)O[C@H]([C@H](C)C[C@@H]2CC[C@@H](OCCO)[C@H](OC)C2)CC(=O)[C@H](C)/C=C(\C)[C@@H](O)[C@@H](OC)C(=O)[C@H](C)C[C@H](C)/C=C/C=C/C=C/1C` [everolimus]: the drug release is 7.1%.
